Measured values from patent US20040259770A1, “Method for determining leukocyte activation” (Rush University Medical Center, priority 2003, published 2004).

What was measured:
[1] = test system: lactoferrin receptors on eosinophils; assay: Binding of 125I-labeled lactoferrin by eosinophils, Scatchard analysis; parameters: species or system human; conditions: 5 micromolar transferrin, 90 nanomolar 125I-labeled lactoferrin, n=2
Experimental: Lactoferrin (100 micrograms) was radioiodinated using IODO-GEN iodination reagent (Pierce; Rockford, Ill.) according to the procedure supplied by the manufacturer. The lactoferrin was incubated with 400 micro Curies Na^125I (PerkinElmer Life Sciences; Boston, Mass.) for 3 min, and the ^125I-labeled lactoferrin was separated from free Na^125I by chromatography through a 5-ml D-Salt dextran desalting column (Pierce) using PBS as the elution buffer. Protein concentration of the ^125I-labeled lactoferrin was measured by the BCA assay (Pierce). Specific activity of the ^125I-labeled lactoferrin was 34,800 cpm/pmole. […] Binding of ^125I-labeled lactoferrin by eosinophils was determined using a modification of previously described protocols for eosinophils. Motegi et al. J. Immunol. […] In some experiments as indicated, binding was measured in the presence of excess unlabeled transferrin. […] The supernatant was removed by careful aspiration, and after quick-freezing on dry ice the tip of the tube containing the cell pellet was excised and the radioactivity was measured by gamma counting (Beckman Coulter Gamma 5500B). Specific binding was determined as the difference between total binding and binding in the presence of the excess unlabeled lactoferrin. Binding constants were determined by Scatchard analysis (Scatchard, G., Ann. N.Y. Acad. Sci. 51:660 (1949)).

eosinophils [2] = assay: Eosinophil superoxide production (cytochrome c reduction) in protein-coated tissue culture wells; type: cell-based, human; conditions: for inhibition of superoxide production stimulated by immobilized lactoferrin (in words): lower concentrations of heparin, any of the concentrations of chondroitin sulfate (30 to 1000 micrograms per milliliter); for inhibition of superoxide production stimulated by 30 micrograms per milliliter of immobilized lactoferrin: heparin 1000 micrograms per milliliter (highest concentration tested), 120 minutes at 37° C
Experimental: Neutrophils were isolated from venous blood of healthy adult volunteers by density gradient centrifugation through lymphocyte separation medium (BioWhittaker; Walkersville, Md.) as described previously (Haskell M. D., et al., Blood 86:4627-4637 (1995)) with one modification. Isotonicity was restored following the brief hypotonic lysis steps by the addition of 2× concentrated Hank's Balanced Salt Solution (HBSS) (Gibco; Grand Island, N.Y.) (without Ca^2+ and Mg^2+) containing 5 mM HEPES, pH 7.4. The cells were suspended in HEPES (10 mM)-buffered HBSS (with Ca^2+ and Mg^2+), pH 7.4, containing 1 milligram per milliliter of human serum albumin (HSA) (Sigma Chemical Co.) (HEPES-HBSS-HSA buffer). Neutrophil purity was routinely greater than 95 percent, with eosinophils representing the remainder of the cells. Eosinophils were isolated from the neutrophil preparations by negative selection (Hansel T. T., et al., J. Immunol. Meth. 145:105-10 (1991)) using anti-CD16 immunomagnetic beads as described by the manufacturer (Miltenyi Biotec, Inc., Auburn, Calif.). The eosinophils were suspended in HEPES-HBSS-HSA buffer. Eosinophil purity was routinely greater than 95 percent as determined by counting Wright-stained cytospin preparations. In some assays, an aliquot of the neutrophil preparation was held on ice for later use.
Superoxide production was measured essentially as described elsewhere (Motegi, Y., and H. Kita, J. Immunol. 161:4340 (1998)). Briefly, wells in a 96-well (flat bottom) tissue culture plate (Corning, Inc.; Corning, N.Y.) were coated with human milk lactoferrin (Sigma Chemical Co.) or human secretory IgA (ICN Biomedical; Aurora, Ohio) by incubation with 50 microliters of the indicated concentrations of the proteins in phosphate buffered saline (PBS) overnight at 4° C. Non-specific protein binding sites were blocked by subsequent incubation with 100 microliters of 25 milligrams per milliliter of HSA in PBS for 2 hours at 37° C., and the tissue culture wells were washed twice with PBS before use. Aliquots (5×10^4 cells) of eosinophils or neutrophils were added to the wells and were incubated in HEPES-HBSS—HSA buffer containing 50 micromolar cytochrome c (Sigma Chemical Co.) for 120 minutes at 37° C. in a Ceres UV900HDi microplate reader (Bio-Tek Instruments, Inc., Winooski, Vt.). Total incubation volume was 0.2 milliliters. Absorbance at 550 nanometers was recorded at 15-minute intervals, and superoxide production was calculated as described previously (Motegi, Y., and H. Kita, J. Immunol. 161:4340 (1998)). Results are expressed as nanomoles superoxide per 10^5 cells after subtraction of spontaneous production, which was measured in tissue culture wells coated only with HSA. GM-CSF (R & D Systems; Minneapolis, Minn.), porcine heparin (Sigma Chemical Co.), or chondroitin sulfate C (Sigma Chemical Co.) was added to the incubation mixtures in some assays as indicated.

eosinophils [3] = assay: Eosinophil leukotriene C4 production by ELISA; type: cell-based, human
Experimental: Eosinophils (2×10^5) were incubated in the presence and absence of 100 pg/ml GM-CSF in RPMI 1640 containing 10 mM HEPES for 1 hr at 37° C. in tissue culture wells precoated with lactoferrin or secretory IgA as above with one modification. The tissue culture wells were not treated with HSA and HSA was not added to the incubation buffer to minimize loss of leukotriene C4. Total incubation volume was 0.2 ml. Reactions were stopped by centrifugation at 300 g for 5 min at 4° C., and supernatants were stored at −20° C. until measurement of leukotriene C4 content by a leukotriene C4/D4/E4 ELISA (Amersham Pharmacia Biotech; Piscataway, N.J.). Spontaneous leukotriene C4 production was determined with eosinophils incubated in untreated tissue culture wells.

eosinophils [4] = assay: Eosinophil degranulation: EDN release by ELISA; type: cell-based, human; conditions: 100 picograms per milliliter GM-CSF, 3 and 10 micrograms per milliliter immobilized lactoferrin
Experimental: Eosinophils (2×10^5) were incubated in the presence and absence of 100 picograms per milliliter of GM-CSF in RPMI 1640 containing 1 milligram per milliliter of HSA for 4 hours at 37° C. in 5 percent CO2 in tissue culture wells precoated with lactoferrin or secretory IgA as above. Total incubation volume was 0.2 milliliters. Reactions were stopped by centrifugation at 300 g for 5 minutes at 4° C., and supernatants were stored at −20° C. until measurement of eosinophil-derived neurotoxin (EDN) content by specific ELISA (MBL International, Watertown, Mass.). Spontaneous release of EDN was determined with cells incubated in HSA-coated wells.

## transferrin: unlabeled transferrin used in excess as competitor in the binding experiments [reference compound]
[1]
  inhibition of eosinophil binding of 125I-labeled lactoferrin: not inhibited

## immobilized transferrin: transferrin, family member of lactoferrin, coated on tissue culture wells [reference compound]
Eosinophils [2]; 1 to 100 micrograms per milliliter of the protein, 2 hours at 37° C
  stimulation of eosinophil superoxide production (in words): did not stimulate superoxide production

## chondroitin sulfate [reference compound]
Eosinophils [2]; 1000 micrograms per milliliter, 30 micrograms per milliliter immobilized lactoferrin
  effect on superoxide production stimulated by immobilized lactoferrin (in words): slight, but statistically significant, increase in superoxide production
Eosinophils [2]
  inhibition of superoxide production stimulated by immobilized lactoferrin (in words): neither the lower concentrations of heparin nor any of the concentrations of chondroitin sulfate inhibited the eosinophil superoxide production

## GM-CSF: granulocyte macrophage colony stimulating factor (R & D Systems)
Eosinophils [2]; 100 picograms per milliliter GM-CSF
  reduction by GM-CSF of the concentration of immobilized lactoferrin required for maximal superoxide production or EDN release: approximately three-fold
Eosinophils [2]; 100 picograms per milliliter GM-CSF, 10 micrograms per milliliter immobilized lactoferrin
  effect of GM-CSF on superoxide production stimulated by immobilized lactoferrin: enhanced the amount of superoxide production
Eosinophils [2]; 100 picograms per milliliter GM-CSF, higher concentrations of immobilized lactoferrin
  effect of GM-CSF on superoxide production stimulated by immobilized lactoferrin: did not appear to increase the level of superoxide production
Eosinophils [2]; GM-CSF alone (100 picograms per milliliter), 2-hour time point, five assays
  GM-CSF stimulated superoxide production: 2.8±0.7 nanomoles of superoxide per 10^5 eosinophils
Eosinophils [3]; 100 picograms per milliliter GM-CSF alone, 1 hour
  leukotriene C4 production: 175 picograms leukotriene C4 per 10^6 eosinophils
Eosinophils [3]; 100 picograms per milliliter GM-CSF, 10 to 100 micrograms per milliliter immobilized lactoferrin
  effect of GM-CSF on leukotriene C4 release stimulated by immobilized lactoferrin: significantly enhanced leukotriene C4 release
Eosinophils [4]
  effect of GM-CSF on EDN release stimulated by immobilized lactoferrin: significantly enhanced EDN release

## heparin [reference compound]
Eosinophils [2]; 1000 micrograms per milliliter heparin, not statistically significant (p=0.07)
  inhibition of superoxide production stimulated by 10 micrograms per milliliter immobilized secretory IgA: 28+/−11%
Eosinophils [2]
  inhibition of superoxide production stimulated by 30 micrograms per milliliter of immobilized lactoferrin: approximately 25%
  inhibition of superoxide production stimulated by immobilized lactoferrin (in words): neither the lower concentrations of heparin nor any of the concentrations of chondroitin sulfate inhibited the eosinophil superoxide production
Eosinophils [2]; listed as Heparin
  inhibition of superoxide production stimulated by 30 micrograms per milliliter of immobilized lactoferrin: 25%
